Structures can show the parent of a compound that is named as a salt. Where two headings read alike, the source gives them in different places.
What was measured:
[1] = Cell toxicity in HIV-1 infected CEM-GXR cultures (forward/side scatter); type: cell-based; details: human, HIV-1NL4-3-infected CEM-GXR cells (CD4+ T-lymphocyte line), Day 4
Protocol: (§1) CEM-GXR cells are an immortalized CD4+ T-lymphocyte line engineered that naturally express the HIV-1 coreceptor CXCR4 and have been further engineered to express the HIV-1 co-receptor CCR5 and a Tat-driven LTR-GFP expression cassette. As such, intracellular GFP expression indicates HIV-1 infection. Cultures of 10^5 CEM-GXR cells were seeded into 96-well plates with RPMI-1640 media (Sigma) supplemented with penicillin/streptomycin plus 20% fetal calf serum (R20+), infected with HIV-1 at a multiplicity of infection of 0.03 (to achieve 3% infected cells on Day 2), and incubated at 37°C and 5% CO2. 24 hours later, cells were pelleted at 750 g and resuspended in R20+ containing compound or 0.1% DMSO. […] Cells were then incubated at 37°C and 5% CO2 for an additional 72 h. 5,000 cells from each culture were measured for cell toxicity and GFP expression by flow cytometry. Flow cytometry data were analyzed using FlowJo v. 8.8.7 software (FlowJo LLC, Ashland, OR). […] Background GFP expression in uninfected cultures was set at 0.05% GFP-positive cells. For each experiment, all data points were obtained in triplicate. All data are reported as the mean ± s.e.m. from at least 3 independent experiments performed with different virus stocks and/or performed on different days. However, all experiments that compare HIV-1NL4-3 and mutant HIV-1 were performed in parallel. EC50 and CC50 values for each compound were calculated from at least four concentrations. Statistical analyses were performed using Student’s unpaired t test, with a p value < 0.05 plus a Bonferroni correction to adjust for multiple comparisons considered significant.
(§2) To assess the effects of these eight compounds on cell viability and HIV-1 replication, we infected a GFP-reporter CEM CD4+ T cell line (CEM-GXR) with the NL4-3 strain of HIV-1 (HIV-1NL4-3). Briefly, cells were infected with HIV-1NL4-3 at a multiplicity of infection of 0.03 (Day 0), followed by removal of HIV-1 and addition of compound (or 0.1% DMSO vehicle control) 24 hours later (Day 1) and incubation for an additional 72 hours to allow HIV-1 spread (Days 2–4). On Days 2 and/or 4, the percent HIV-1 infected (i.e., GFP-expressing) cells was measured by flow cytometry. Cell viability was assessed by measuring the percentage of cells displaying normal forward- and side-scatter parameters in drug-treated, HIV-1 infected cultures compared to 0.1% DMSO-treated, HIV-1 infected control cultures. […] HIV-1NL4-3 replication was unaffected by the presence of 0.1% DMSO vehicle control (Fig. 2B).

HIV-1NL4-3 [2] = assay: microbe, parasite or virus in culture; type: cell-based; details: for HIV-1 inhibition in the viral replication assay (in words): up to 100 μM; for EC50: read-out: HIV-1NL4-3 inhibition (EC50); for replication of HIV-1NL4-3 in CEM-GXR cells (in words): 0.1 μM
Protocol: as §1, §2

[3] = tested on: HCV J4(1b)/JFH1(2a) chimera; assay: HCV replication assay in Huh-7.5 cells (NS5A flow cytometry); type: cell-based; details: Hepatitis C virus, Huh7.5, 72 h, read-out: inhibition of HCV replication
Protocol: The intergenotypic chimeric HCV used in this study—Bi-Gluc-J4(1b)/JFH1(2a) containing cell culture adaptive mutations in NS2 (T2996C) and NS3 (A4827T)—was previously described and subsequently modified to express Gaussia luciferase in the first cistron. HCV stocks used for infection were generated by electroporation of in vitro transcribed RNA into Huh-7.5.1 cells and pooling of supernatants harvested between 60–96 hr post-electroporation. HCV infectivity was determined by limiting dilution assay as previously described.
HCV cell culture was performed as described previously. Briefly, 4*10^4 Huh-7.5 cells were seeded into 24-well plates and incubated at 37°C and 5% CO2 overnight. Cells were then infected with HCV (multiplicity of infection = 0.3) for 6 hours, followed by removal of HCV and incubation with fresh medium containing compounds at stated concentrations. Cultures were then incubated for 72 hours, with no more than 0.1% DMSO present in culture medium. Cells were then trypsinized, resuspended in culture medium, and stained with the 9E10 alexa-fluor-conjugated antibody to NS5A [27]. Cells were fixed and analyzed for NS5A fluorescence by flow cytometry, and data were analyzed using FlowJo software. […] For each culture, NS5A fluorescence was determined as the percent gated cells relative to percent gated cells in infected cultures plus 0.1% DMSO. All experiments were performed in at least duplicate in at least two independent experiments.
We therefore assessed the effects of ixoratannin A-2, boldine, and BIT-225 on replication of HCV, which also encodes a viral ion channel and protease. Using an established cell culture system, Huh-7.5 cells were infected with an intergenotypic chimera between the J4 (genotype 1b) and JFH1 (genotype 2a) strain of HCV for 6 hours, followed by incubation with fresh medium containing compounds at defined concentrations. Infected cells were then incubated for an additional 72 hours. NS5A expression, a marker of HCV infection, was then detected by flow cytometry.

HIV-1NL4-3 [4] = assay: HIV-1 replication assay in PBMCs (p24Gag ELISA); type: cell-based; details: 10 μM, Day 12
Protocol: PBMCs from HIV-1 negative subjects, purchased commercially (StemCell Technologies, Vancouver, Canada), were maintained in RPMI-1640 media (Sigma) supplemented with penicillin/streptomycin plus 10% fetal calf serum (R10+). 72 h prior to viral infection, PBMCs were stimulated by addition of 5 μg/mL phytohaemaglutanin (PHA) (Day 0) and maintained in R10+ medium supplemented with 100 units/mL human IL-2. At Day 3 following cellular activation, 3x10^5 cells were infected with HIV-1NL4-3 at a multiplicity of infection of 0.003 (0.3% infected cells) and incubated at 37°C for 6h, followed by wash and re-suspension in fresh R10+ medium supplemented with 100 units/mL human IL-2 and with or without compounds at defined concentrations. Culture supernatants were collected and replaced with fresh medium supplemented with human IL-2 every 3 days (i.e., Days 6, 9, and 12) with or without fresh compounds. Viral replication at day 12 was monitored by measuring cell culture supernatant levels of p24^Gag by ELISA (XpressBio, Frederick, MD) following manufacturer’s instructions.

[5] = PBMC cytotoxicity (ViaCount Assay); type: cell-based; details: human, PHA-activated PBMCs; Day 5, ViaCount
Protocol: Cytotoxicity was determined by ViaCount Assay (Millipore). Briefly, Day 3 PHA-activated PBMCs (3*10^5) were cultured in R10+ supplemented with 100 units/mL human IL-2 in the presence of 0.1% DMSO or compounds at defined concentrations. At Day 5, 15 μL of each PBMC culture was mixed with Guava ViaCount Reagent at a 1:10 dilution. Data were collected using a Guava EasyCyte HT Flow Cytometer (Millipore).

[6] = tested on: Madin-Darby bovine kidney cells; design: method as in PMID 20832370; details: read-out: CC50 in bovine viral diarrhea virus-infected Madin-Darby bovine kidney cells; cited from earlier work
in vitro = type: cell-based; details: human
SupT1 and CEM-SS cells = details: cited from earlier work
[7] = tested on: monocyte derived macrophages; details: cited from earlier work
HIV-1PR+RT = HIV-1PR+RT replication in CEM-GXR cells; type: cell-based; details: 0.1 μM, CEM-GXR cells, Day 4
Protocol: (§3) HIV-1Δvpu was constructed by digesting plasmid p210-13 3’ Δ-vpu with EcoRI and NheI enzymes. The resulting DNA fragment was then ligated into wild-type pNL4-3 plasmid digested with the same enzymes. HIV-1Δvpu and HIV-1NL4-3 viral stocks were prepared by transfection of HEK-293T cells, as previously described. Patient plasma-HIV-1 RNA sequences were analyzed for resistance mutations using the HIV Drug Resistance Database Genotype Resistance Interpretation Algorithm (hivdb.stanford.edu). Recombinant HIV-1NL4-3 expressing patient-derived HIV-1 sequences harboring resistance mutations to protease and reverse transcriptase inhibitors (HIV-1PR+RT), reverse transcriptase inhibitors (HIV-1RT), and integrase inhibitors (HIV-1INT) were generated by homologous recombination following co-transfection as reported.
as §1
(§4) To investigate the mechanisms by which ixoratannin A-2 and boldine may block HIV-1 replication, we used a previously-reported HIV-1NL4-3 strain lacking the Vpu coding region (HIV-1Δvpu). We also constructed recombinant HIV-1NL4-3 strains harboring protease, reverse transcriptase, and/or integrase sequences of HIV-1 strains from patients who had developed resistance to the protease inhibitor Indinavir (IND), the non-nucleoside reverse transcriptase inhibitor Efavirenz (EFV), and/or the integrase inhibitor Raltegravir (RAL) (denoted HIV-1PR+RT, HIV-1RT, and HIV-1INT, respectively). Re-sequencing of the recombinant viruses confirmed the presence of multiple mutations known to confer resistance to IND, EFV, and/or RAL (Table 2).

HIV-1RT = assay: microbe, parasite or virus in culture; type: cell-based; details: 0.1 μM, CEM-GXR cells, Day 4
Protocol: CEM-GXR cells are an immortalized CD4+ T-lymphocyte line engineered that naturally express the HIV-1 coreceptor CXCR4 and have been further engineered to express the HIV-1 co-receptor CCR5 and a Tat-driven LTR-GFP expression cassette. As such, intracellular GFP expression indicates HIV-1 infection [26]. Cultures of 10^5 CEM-GXR cells were seeded into 96-well plates with RPMI-1640 media (Sigma) supplemented with penicillin/streptomycin plus 20% fetal calf serum (R20+), infected with HIV-1 at a multiplicity of infection of 0.03 (to achieve 3% infected cells on Day 2), and incubated at 37°C and 5% CO2. 24 hours later, cells were pelleted at 750 g and resuspended in R20+ containing compound or 0.1% DMSO. […] Cells were then incubated at 37°C and 5% CO2 for an additional 72 h. 5,000 cells from each culture were measured for cell toxicity and GFP expression by flow cytometry. […] Background GFP expression in uninfected cultures was set at 0.05% GFP-positive cells. For each experiment, all data points were obtained in triplicate. All data are reported as the mean ± s.e.m. from at least 3 independent experiments performed with different virus stocks and/or performed on different days. […] EC50 and CC50 values for each compound were calculated from at least four concentrations. Statistical analyses were performed using Student’s unpaired t test, with a p value < 0.05 plus a Bonferroni correction to adjust for multiple comparisons considered significant.

HIV-1Δvpu = HIV-1Δvpu replication in CEM-GXR cells; type: cell-based; details: 0.1 μM, Day 4
Protocol: as §3, §1, §4

CEM-GXR cells = assay: Cell toxicity in HIV-1 infected CEM-GXR cultures (forward/side scatter); type: cell-based; details: HIV-1NL4-3-infected CEM-GXR cells, Day 4
Protocol: as §1, §2

HIV-1INT = HIV-1INT replication in CEM-GXR cells; type: cell-based; details: 0.1 μM, CEM-GXR cells, Day 4
Protocol: as §3, §1, §4

[8] = Human immunodeficiency virus 1, 96 h, CEM-GXR cells, Day 4

Structure (SMILES) | CC50 at 72 h [1] [µM] | HIV-1 inhibition in the viral replication assay (in words) (HIV-1NL4-3 [2]; CEM-GXR cells) | EC50 (HIV-1NL4-3 [2]; [8]) [µM] | replication of HIV-1NL4-3 in CEM-GXR cells (in words) (HIV-1NL4-3 [2]; Day 4) | replication of HIV-1Δvpu in CEM-GXR cells (in words) (HIV-1Δvpu) | other results
CC(=O)c1c(O)cc(OC2OC(O)C(O)C(O)C2O)c(-c2c(C)cc(O)c3c2C(=O)c2cccc(O)c2C3=O)c1O (stereo not drawn) [2MA, 1-(3-acetyl-2,4-dihydroxy-6-((3,4,5,6-tetrahydroxytetrahydro-2H-pyran-2-yl)oxy)phenyl)-4,5-dihydroxy-2-methylanthracene-9,10-dione] | 50.9 | did not inhibit HIV-1 | > 100 | – | – | –
Cn1cc(-c2cccc3cc(C(=O)NC(=N)N)ccc23)cn1 [BIT-225, reference compound] | 10.7 | – | – | – | – | inhibition at 30 µM [3]: 37.5%; reduced HIV-1 replication in PBMCs (p24Gag) (HIV-1NL4-3 [4]): 31.8%; CC50 [5]: 12.8 µM; CC50 [6]: 11.6 µM; CC50 at 72 h (in vitro): 52.9 µM; CC50 (SupT1 and CEM-SS cells): 32 to 67 µM; CC50 [7]: 167 to 284 µM
O=c1oc2c(O)c(O)cc3c(=O)oc4c(O)c(O)cc1c4c23 [EA, ellagic acid] | 52.3 | did not observe these activities | > 100 | – | – | –
O=C(O[C@@H]1Cc2c(O)cc(O)cc2O[C@@H]1c1ccc(O)c(O)c1)c1cc(O)c(O)c(O)c1 [ECG, epicatechin gallate] | > 100 | did not observe antiviral activity | > 100 | – | – | –
O=C1Nc2ccc(Cl)cc2[C@@](C#CC2CC2)(C(F)(F)F)O1 [EFV, Efavirenz, reference compound] | – | – | – | inhibited | inhibited | HIV-1PR+RT replication fold higher than HIV-1NL4-3 (HIV-1PR+RT): 2.6 fold; HIV-1RT replication fold greater than HIV-1NL4-3 (HIV-1RT): 3.4 fold
CC(C)(C)NC(=O)[C@@H]1CN(Cc2cccnc2)CCN1C[C@@H](O)C[C@@H](Cc1ccccc1)C(=O)N[C@H]1c2ccccc2C[C@H]1O [IND, Indinavir, reference compound] | – | – | – | inhibited | inhibited | HIV-1PR+RT replication fold higher than HIV-1NL4-3 (HIV-1PR+RT): 2.7 fold
COc1cc2ccc3c(OC)c(O)ccc3c2c(OC)c1O [PA, 1,5,7-trimethoxyphenanthrene-2,6-diol] | < 30 | – | – | – | – | CC50 (CEM-GXR cells): 26.8 µM
Cc1nnc(C(=O)NC(C)(C)c2nc(C(=O)NCc3ccc(F)cc3)c(O)c(=O)n2C)o1 [RAL, Raltegravir, reference compound] | – | – | – | inhibited | inhibited | HIV-1INT replication fold higher than HIV-1NL4-3 (HIV-1INT): 1.7 fold
O=C1OCc2cc3cccc(OC4OC(CO)C(O)C(O)C4O)c3c(O)c21 (stereo not drawn) [geshoidin] | > 10 | did not inhibit HIV-1 | – | – | – | EC50 (HIV-1NL4-3 [2]; Human immunodeficiency virus 1, CEM-GXR, 96 h): > 100 µM
CC(N)C12CC3CC(CC(C3)C1)C2 (stereo not drawn) [rimantadine, rimantadine hydrochloride, reference compound] | – | – | – | – | – | inhibition at 50 µM [3]: 40.7%
